Drawing on patent publication US5994342A, “3-(substituted methyl)-4-oxa-1-azabicyclo[3.2.0]heptan-7-one derivatives useful as antitumor agents” (priority 1994, dated 1999), this text covers IC50 for 34 molecules.

Values after ≈ are worked out from the molar mass of the structure shown. Counter-ions that a name gives are not always drawn.

The subject of this test is KB cells. The test is described as follows: In vitro KB cell cytotoxicity assay (crystal violet). It counts as cell-based. The note with it: Homo sapiens, 72 h, 3 days culture, read-out: KB Cell Cytotoxicity TD50. On the procedure:
In Vitro KB Cell Cytotoxicity Assay In vitro KB cell cytoxocity assay was done by modification of the crystal violet assay ([…] et al., Anal Biochem., 159, 109-113 (1986). KB cells were cultivated in Eagles minimum essential medium supplemented with 10% calf serum and incubated at 37° C. in a humidified 5% CO2 atmosphere to prepare a cell stock. Cells were counted using a neubauer hemocytometer and seeded in 96 well plates at 100 μl of 3×10^4 cells/ml and cultured for one day. […] Control wells were identical except that test compound was absent. These were cultured for three days. Then the cells were fixed with addition of 20 μl of 25% glutaraldehyde for 15 minutes, washed with water and dried. Then stained with 100 μl of 0.05% crystal violet for 15 minutes, washed with water and dried. The wells are eluted with […] of 0.05M NaH2 PO4 /ethanol (1:1 v/v) and read at OD540 on a multiscan spectrophotometer. Inhibition value of cell growth was calculated based on optical density using the following equation; [formula] TD50 values were calculated from linear regression ines of the log-logit plot.
For the molecule `O=C(NC[C@@H]1CN2C(=O)C[C@H]2O1)c1cccnc1` (racemic) [Example 32, (3RS,5RS)-3-[N-[(Pyridin-3-yl)carbonyl]aminomethyl]-4-oxa-1-azabicyclo[3.2.0]heptan-7-one], the IC50 was found to be 0.78 µg/mL (≈ 3.15 µM).
The result for `O=C(CO)NC[C@@H]1CN2C(=O)C[C@H]2O1` (racemic) [Example 12, (3RS,5RS)-3-[N-(Hydroxyacetyl)aminomethyl]-4-oxa-1-azabicyclo[3.2.0]heptan-7-one] reads 0.125 µg/mL (≈ 0.624 µM); that for `O=C(CCCCCn1ccnn1)NC[C@@H]1CN2C(=O)C[C@H]2O1` (racemic) [Example 16, (3RS,5RS)-3-[N-[(1,2,3-Triazol-1-yl)hexanoyl]aminomethyl]-4-oxa-1-azabicyclo[3.2.0]heptan-7-one], 0.318 µg/mL (≈ 1.03 µM).
The result for `C=CCCC(=O)NC[C@@H]1CN2C(=O)C[C@H]2O1` (racemic) [Example 19, (3RS,5RS)-3-[N-(4-Pentenoyl)aminomethyl]-4-oxa-1-azabicyclo[3.2.0]heptan-7-one] reads 0.266 µg/mL (≈ 1.19 µM); that for `C#CC(=O)NC[C@@H]1CN2C(=O)C[C@H]2O1` (racemic) [Example 20, (3RS,5RS)-3-[N-Propynoylaminomethyl]-4-oxa-1-azabicyclo[3.2.0]heptan-7-one], 0.333 µg/mL (≈ 1.71 µM).
The same measure for `O=C(N[C@@H](CO)C(=O)OCC1CN2C(=O)CC2O1)OCc1ccccc1` (stereo partly drawn) [Example 70, (3RS,5SR)-3-(L-2-N-Benzyloxycarbonylamino-3-hydroxypropanyl)oxymethyl-4-oxa-1-azabicyclo[3.2.0]heptan-7-one]: 0.352 µg/mL (≈ 0.966 µM).
Consider `O=C(N[C@@H](COCc1ccccc1)C(=O)OCC1CN2C(=O)CC2O1)OCc1ccccc1` (stereo partly drawn) [Example 72, (3RS,5SR)-3-L-(2-N-Benzyloxycarbonylamino-3-benzyloxypropanoyl)oxymethyl-4-oxa-1-azabicyclo[3.2.0]heptan-7-one], for which the IC50 turned out to be 1.67 µg/mL (≈ 3.67 µM).
The same measure for `N#Cc1ccc(C(=O)NC[C@@H]2CN3C(=O)C[C@H]3O2)cc1` (racemic) [Example 30, (3RS,5RS)-3-[N-(4-Cyanobenzoyl)aminomethyl]-4-oxa-1-azabicyclo[3.2.0]heptan-7-one]: 0.378 µg/mL (≈ 1.39 µM); for `[N-]=[N+]=NCCCCCC(=O)NC[C@@H]1CN2C(=O)C[C@H]2O1` (racemic) [Example 15, (3RS,5RS)-3-[N-(6-Azidohexanoyl)aminomethyl]-4-oxa-1-azabicyclo[3.2.0]heptan-7-one]: 0.254 µg/mL (≈ 0.903 µM); for `O=C(NC[C@@H]1CN2C(=O)C[C@H]2O1)c1ccc(F)cc1` (racemic) [Example 27, (3RS,5RS)-3-[N-(4-Fluorobenzoyl)aminomethyl]-4-oxa-1-azabicyclo[3.2.0]heptan-7-one]: 0.24 µg/mL (≈ 0.908 µM).
The result for `C[C@H](N)C(=O)NCC1CN2C(=O)CC2O1` (stereo partly drawn) [Example 50B, (3RS,5RS)-3-N-(L-2-Aminopropanoyl)aminomethyl-4-oxa-1-azabicyclo[3.2.0]heptan-7-one hydrochloride] reads 0.657 µg/mL.
As to `COc1ccc(C(=O)NC[C@@H]2CN3C(=O)C[C@H]3O2)cc1OC` (racemic) [Example 26, (3RS,5RS)-3-[N-(3,4-Dimethoxybenzoyl)aminomethyl]-4-oxa-1-azabicyclo[3.2.0]heptan-7-one], the IC50 was found to be 0.249 µg/mL (≈ 0.813 µM).
The result for `O=C(NC[C@@H]1CN2C(=O)C[C@H]2O1)c1ccc(O)cc1` (racemic) [Example 24, (3RS,5RS)-3-[N-(4-Hydroxybenzoyl)aminomethyl]-4-oxa-1-azabicyclo[3.2.0]heptan-7-one] reads 0.276 µg/mL (≈ 1.05 µM); that for `C[C@@H](NC(=O)OCc1ccccc1)C(=O)N[C@@H](CO)C(=O)OCC1CN2C(=O)CC2O1` (stereo partly drawn) [Example 71, (3RS,5SR)-3-[L-2-N-(D-2-N-Benzyloxycarbonylaminopropanoyl)amino-3-hydroxypropanoyl]oxymethyl-4-oxa-1-azabicyclo[3.2.0]heptan-7-one], 0.549 µg/mL (≈ 1.26 µM); that for `COc1ccc(C(=O)NC[C@@H]2CN3C(=O)C[C@H]3O2)cc1` (racemic) [Example 25, (3RS,5RS)-3-[N-(4-Methoxybenzoyl)aminomethyl]-4-oxa-1-azabicyclo[3.2.0]heptan-7-one], 0.255 µg/mL (≈ 0.923 µM).
The same measure for `CC(=O)N[C@@H](C(=O)OC[C@H]1CN2C(=O)C[C@@H]2O1)C(C)C` (mixture of isomers) [Example 61, (3RS,5SR)-3-(D-2-Acetylamino-3-methylbutyryl)oxymethyl-4-oxa-1-azabicyclo[3.2.0]heptan-7-one]: 0.385 µg/mL.
The same measure for `O=C(O)CCC(=O)NC[C@H]1CN2C(=O)C[C@@H]2O1` (relative stereo) [Example 18, Sodium{N-[(3RS,5RS)-7-oxo-1-aza-4-oxabicyclo[3.2.0]hept-3-yl]methylamino}succinate]: 2.85 µg/mL; for `CC(C)C(=O)NC[C@@H]1CN2C(=O)C[C@H]2O1` (racemic) [Example 5, (3RS,5RS)-3-[N-(2-Methylpropanoyl)aminomethyl]-4-oxa-1-azabicyclo[3.2.0]heptan-7-one]: 0.181 µg/mL (≈ 0.853 µM).
On to `CC(=O)NCCCCCC(=O)NC[C@@H]1CN2C(=O)C[C@H]2O1` (racemic) [Example 17, (3RS,5RS)-3-[N-(6-Acetylaminohexanoyl)aminomethyl]-4-oxa-1-azabicyclo[3.2.0]heptan-7-one], for which the IC50 stood at 0.439 µg/mL (≈ 1.48 µM).
Consider `O=COCC(=O)NC[C@@H]1CN2C(=O)C[C@H]2O1` (racemic) [Example 11, (3RS,5RS)-3-[N-(Formyloxyacetyl)aminomethyl]-4-oxa-1-azabicyclo[3.2.0]heptan-7-one], for which the IC50 stood at 0.147 µg/mL (≈ 0.644 µM).
The result for `N[C@@H](CC(=O)O)C(=O)N[C@@H](Cc1ccccc1)C(=O)NCC1CN2C(=O)CC2O1` (stereo partly drawn) [Example 64B, (3RS,5RS)-3-N-[L-2-N-(L-2-Amino-3-carboxypropanoyl)amino-3-phenylpropanoyl]aminomethyl-4-oxa-1-azabicyclo[3.2.0]heptan-7-one] reads 2.65 µg/mL (≈ 6.55 µM); that for `C[C@@H](NC(=O)OCc1ccccc1)C(=O)N[C@@H](COCc1ccccc1)C(=O)OCC1CN2C(=O)CC2O1` (stereo partly drawn) [Example 73, (3RS,5R)-3-[L-2-N-(D-2-N-Benzyloxycarbonylaminopropanoyl)amino-3-benzyloxypropanoyl]oxymethyl-4-oxa-1-azabicyclo[3.2.0]heptan-7-one], 2.22 µg/mL (≈ 4.22 µM); that for `O=C(CCCCCBr)NC[C@@H]1CN2C(=O)C[C@H]2O1` (racemic) [Example 13, (3RS,5RS)-3-[N-(6-Bromohexanoyl)aminomethyl]-4-oxa-1-azabicyclo[3.2.0]heptan-7-one], 0.491 µg/mL (≈ 1.54 µM).
The result for `O=C1C[C@H]2O[C@@H](CNS(=O)(=O)c3ccc(Cl)cc3)CN12` (racemic) [Example 37, (3RS,5RS)-3-[N-(4-Chlorobenzenesulfonyl)aminomethyl]-4-oxa-1-azabicyclo[3.2.0]heptan-7-one] reads 0.484 µg/mL (≈ 1.53 µM).
The same measure for `O=C(Cn1ccnn1)NC[C@@H]1CN2C(=O)C[C@H]2O1` (racemic) [Example 10, (3RS,5RS)-3-[N-(1,2,3-Triazole-1-yl)acetylaminomethyl]-4-oxa-1-azabicyclo[3.2.0]heptan-7-one]: 0.282 µg/mL (≈ 1.12 µM).
As for `CC(=O)N[C@@H](CCCCNC(=O)OCc1ccccc1)C(=O)OCC1CN2C(=O)CC2O1` (stereo partly shown) [Example 78], the IC50 worked out at 3.38 µg/mL (≈ 7.55 µM).
With `O=C(NC[C@@H]1CN2C(=O)C[C@H]2O1)OCc1ccccc1` (racemic) [Example 21, (3RS,5RS)-3-[N-(Benzyloxycarbonyl)aminomethyl]-4-oxa-1-azabicyclo[3.2.0]heptan-7-one], the IC50 worked out at 0.34 µg/mL (≈ 1.23 µM).
The result for `CC(=O)NC[C@@H]1CN2C(=O)C[C@H]2O1` [Example 3, (3R,5R)-3-(N-Acetylaminomethyl)-4-oxa-1-azabicyclo[3.2.0]heptan-7-one] reads 3.15 µg/mL (≈ 17.1 µM).
The same measure for `O=COCCCCCC(=O)NC[C@@H]1CN2C(=O)C[C@H]2O1` (racemic) [Example 14, (3RS,5RS)-3-[N-(6-Formyloxyhexanoyl)aminomethyl]-4-oxa-1-azabicyclo[3.2.0]heptan-7-one]: 0.243 µg/mL (≈ 0.855 µM); for `[N-]=[N+]=NCC(=O)NC[C@@H]1CN2C(=O)C[C@H]2O1` (racemic) [Example 9, (3RS,5RS)-3-[N-(Azidoacetyl)aminomethyl]-4-oxa-1-azabicyclo[3.2.0]heptan-7-one]: 0.296 µg/mL (≈ 1.31 µM).
The result for `Cc1ccc(S(=O)(=O)NC[C@H]2CN3C(=O)C[C@H]3O2)cc1` (racemic) [Example 36, (3RS,5RS)-3-[N-(4-Toluenesulfonyl)aminomethyl]-4-oxa-1-azabicyclo[3.2.0]heptan-7-one] reads 0.338 µg/mL (≈ 1.14 µM).
With `O=C(NC[C@@H]1CN2C(=O)C[C@H]2O1)c1cc(F)c(F)cc1F` (racemic) [Example 29, (3RS,5RS)-3-[N-(2,4,5-Trifluorobenzoyl)aminomethyl]-4-oxa-1-azabicyclo[3.2.0]heptan-7-one], the IC50 amounted to 0.535 µg/mL (≈ 1.78 µM).
The result for `N[C@@H](CO)C(=O)NCC1CN2C(=O)CC2O1` (stereo partly drawn) [Example 76B, (3RS,5RS)-3-[N-(L-2-Amino-3-hydroxypropanoyl)aminomethyl]-4-oxa-1-azabicyclo[3.2.0]heptan-7-one hydrochloride] reads 8.81 µg/mL; that for `O=C(NC[C@@H]1CN2C(=O)C[C@H]2O1)c1cc(F)ccc1F` (racemic) [Example 28, (3RS,5RS)-3-[N-(2,5-Difluorobenzoyl)aminomethyl]-4-oxa-1-azabicyclo[3.2.0]heptan-7-one], 0.379 µg/mL (≈ 1.34 µM).
